# PubChem BioAssay AID2060904 (Molecular Pharmacology Branch, DTP, NCI, 2025)
# Test system: 349418-098-R-PDC complex spheroid viability
# Assay: Anticancer human tumor 349418-098-R-PDC patient-derived lung adenocarcinoma cell line growth inhibition [RAS]
# Details: for viability, T/C: stronger effect = lower value
# Method in brief: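 Tumour cells grown as complex spheroids with HUVEC endothelial cells and mesenchymal stem cells, treated with RAS pathway inhibitor combinations. Each agent spans half-log steps from near clinical Cmax, or 10 microM where Cmax is unknown.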
# [1] = curve of first compound, second compound 0.000949 µM
# [2] = curve of first compound, second compound 0.003 µM
# [3] = curve of first compound, second compound 0.00949 µM
# [4] = curve of first compound, second compound 0.03 µM
# [5] = curve of first compound, second compound 0.0949 µM
# [6] = curve of first compound, second compound 0.3 µM
# [7] = second compound 0.000949 µM, first compound 0.0316 µM
# [8] = second compound 0.000949 µM, first compound 0.1 µM
# [9] = second compound 0.000949 µM, first compound 0.316 µM
# [10] = second compound 0.000949 µM, first compound 1 µM
# [11] = second compound 0.003 µM, first compound 0.0316 µM
# [12] = second compound 0.003 µM, first compound 0.1 µM
# [13] = second compound 0.003 µM, first compound 0.316 µM
# [14] = second compound 0.003 µM, first compound 1 µM
# [15] = second compound 0.00949 µM, first compound 0.0316 µM
# [16] = second compound 0.00949 µM, first compound 0.1 µM
# [17] = second compound 0.00949 µM, first compound 0.316 µM
# [18] = second compound 0.00949 µM, first compound 1 µM
# [19] = second compound 0.03 µM, first compound 0.0316 µM
# [20] = second compound 0.03 µM, first compound 0.1 µM
# [21] = second compound 0.03 µM, first compound 0.316 µM
# [22] = second compound 0.03 µM, first compound 1 µM
# [23] = second compound 0.0949 µM, first compound 0.0316 µM
# [24] = second compound 0.0949 µM, first compound 0.1 µM
# [25] = second compound 0.0949 µM, first compound 0.316 µM
# [26] = second compound 0.0949 µM, first compound 1 µM
# [27] = second compound 0.3 µM, first compound 0.0316 µM
# [28] = second compound 0.3 µM, first compound 0.1 µM
# [29] = second compound 0.3 µM, first compound 0.316 µM
# [30] = second compound 0.3 µM, first compound 1 µM
# 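Further: spheroids exposed to compound for seven days before viability readout.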
structure (smiles),measurement,setting,value
C=CC(=O)N1CCN(c2nc(OCC3CCCN3C)nc3c(F)c(-c4nc(N)cc(C)c4C(F)(F)F)c(Cl)cc23)C(C)C1 (stereo not drawn) + CCn1c(-c2cccnc2C(C)OC)c2c3cc(ccc31)N1CCOC(CC(NC(=O)C(C(C)C)N(C)C(=O)C3(F)CCN(C(=O)C#CC(C)(C)N(C)C)CC3)C(=O)N3CCCC(N3)C(=O)OCC(C)(C)C2)C1,IC50,[1],> 1000 nM
same,IC50,[2],> 1000 nM
same,IC50,[3],> 1000 nM
same,IC50,[4],> 1000 nM
same,IC50,[5],> 1000 nM
same,IC50,[6],> 1000 nM
same,"viability, T/C","second compound 0.000949 µM, first compound 0.00316 µM",99%
same,"viability, T/C","second compound 0.000949 µM, first compound 0.01 µM",94%
same,"viability, T/C",[7],111%
same,"viability, T/C",[8],106%
same,"viability, T/C",[9],116%
same,"viability, T/C",[10],87.4%
same,"viability, T/C","second compound 0.003 µM, first compound 0.00316 µM",112%
same,"viability, T/C","second compound 0.003 µM, first compound 0.01 µM",97.6%
same,"viability, T/C",[11],103%
same,"viability, T/C",[12],92.6%
same,"viability, T/C",[13],109%
same,"viability, T/C",[14],82.8%
same,"viability, T/C","second compound 0.00949 µM, first compound 0.00316 µM",105%
same,"viability, T/C","second compound 0.00949 µM, first compound 0.01 µM",98.3%
same,"viability, T/C",[15],101%
same,"viability, T/C",[16],101%
same,"viability, T/C",[17],105%
same,"viability, T/C",[18],98.8%
same,"viability, T/C","second compound 0.03 µM, first compound 0.00316 µM",99.3%
same,"viability, T/C","second compound 0.03 µM, first compound 0.01 µM",97.4%
same,"viability, T/C",[19],90.2%
same,"viability, T/C",[20],104%
same,"viability, T/C",[21],103%
same,"viability, T/C",[22],83.3%
same,"viability, T/C","second compound 0.0949 µM, first compound 0.00316 µM",102%
same,"viability, T/C","second compound 0.0949 µM, first compound 0.01 µM",89%
same,"viability, T/C",[23],85.5%
same,"viability, T/C",[24],89.7%
same,"viability, T/C",[25],100%
same,"viability, T/C",[26],89%
same,"viability, T/C","second compound 0.3 µM, first compound 0.00316 µM",85.4%
same,"viability, T/C","second compound 0.3 µM, first compound 0.01 µM",95.2%
same,"viability, T/C",[27],83.8%
same,"viability, T/C",[28],87.8%
same,"viability, T/C",[29],101%
same,"viability, T/C",[30],80%
CCN1CCN(Cc2ccc(Nc3ncc(F)c(-c4cc(F)c5nc(C)n(C(C)C)c5c4)n3)nc2)CC1 + C#Cc1c(F)ccc2cc(O)cc(-c3ncc4c(N5CC6CCC(C5)N6)nc(OCC56CCCN5CC(F)C6)nc4c3F)c12,IC50,"curve of first compound, second compound 0.0316 µM",7.9 nM
same,IC50,"curve of first compound, second compound 0.1 µM",30.5 nM
same,IC50,"curve of first compound, second compound 0.316 µM",18.2 nM
same,IC50,"curve of first compound, second compound 1 µM",12.3 nM
same,IC50,"curve of first compound, second compound 3.16 µM",10.3 nM
same,IC50,"curve of first compound, second compound 10 µM",< 3.16 nM
same,"viability, T/C","second compound 0.0316 µM, first compound 0.00316 µM",66.8%
same,"viability, T/C","second compound 0.0316 µM, first compound 0.01 µM",38.2%
same,"viability, T/C","second compound 0.0316 µM, first compound 0.0316 µM",41.9%
same,"viability, T/C","second compound 0.0316 µM, first compound 0.1 µM",25.9%
same,"viability, T/C","second compound 0.0316 µM, first compound 0.316 µM",18%
same,"viability, T/C","second compound 0.0316 µM, first compound 1 µM",16.3%
same,"viability, T/C","second compound 0.1 µM, first compound 0.00316 µM",76.2%
same,"viability, T/C","second compound 0.1 µM, first compound 0.01 µM",77.7%
same,"viability, T/C","second compound 0.1 µM, first compound 0.0316 µM",47.6%
same,"viability, T/C","second compound 0.1 µM, first compound 0.1 µM",25.7%
same,"viability, T/C","second compound 0.1 µM, first compound 0.316 µM",22%
same,"viability, T/C","second compound 0.1 µM, first compound 1 µM",14.4%
same,"viability, T/C","second compound 0.316 µM, first compound 0.00316 µM",78.2%
same,"viability, T/C","second compound 0.316 µM, first compound 0.01 µM",59.9%
same,"viability, T/C","second compound 0.316 µM, first compound 0.0316 µM",40.8%
same,"viability, T/C","second compound 0.316 µM, first compound 0.1 µM",28.9%
same,"viability, T/C","second compound 0.316 µM, first compound 0.316 µM",24.4%
same,"viability, T/C","second compound 0.316 µM, first compound 1 µM",16.2%
same,"viability, T/C","second compound 1 µM, first compound 0.00316 µM",79.4%
same,"viability, T/C","second compound 1 µM, first compound 0.01 µM",49.6%
same,"viability, T/C","second compound 1 µM, first compound 0.0316 µM",37.8%
same,"viability, T/C","second compound 1 µM, first compound 0.1 µM",33.5%
same,"viability, T/C","second compound 1 µM, first compound 0.316 µM",20.5%
same,"viability, T/C","second compound 1 µM, first compound 1 µM",19.9%
same,"viability, T/C","second compound 3.16 µM, first compound 0.00316 µM",74.1%
same,"viability, T/C","second compound 3.16 µM, first compound 0.01 µM",51.3%
same,"viability, T/C","second compound 3.16 µM, first compound 0.0316 µM",32.8%
same,"viability, T/C","second compound 3.16 µM, first compound 0.1 µM",29.1%
same,"viability, T/C","second compound 3.16 µM, first compound 0.316 µM",30.4%
same,"viability, T/C","second compound 3.16 µM, first compound 1 µM",16.6%
same,"viability, T/C","second compound 10 µM, first compound 0.00316 µM",26.7%
same,"viability, T/C","second compound 10 µM, first compound 0.01 µM",37.7%
same,"viability, T/C","second compound 10 µM, first compound 0.0316 µM",14.3%
same,"viability, T/C","second compound 10 µM, first compound 0.1 µM",12.5%
same,"viability, T/C","second compound 10 µM, first compound 0.316 µM",5.58%
same,"viability, T/C","second compound 10 µM, first compound 1 µM",2.78%
CC(=O)OC12COC1CC(O)C1(C)C(=O)C(O)C3=C(C)C(OC(=O)C(O)C(NC(=O)OC(C)(C)C)c4ccccc4)CC(O)(C(OC(=O)c4ccccc4)C21)C3(C)C (stereo not drawn) + CCn1c(-c2cc(N3CCN(C)CC3)cnc2C(C)OC)c2c3cc(ccc31)-c1csc(n1)CC(NC(=O)C1CC1C)C(=O)N1CCCC(N1)C(=O)OCC(C)(C)C2,IC50,[1],< 31.6 nM
same,IC50,[2],< 31.6 nM
same,IC50,[3],< 31.6 nM
same,IC50,[4],< 31.6 nM
same,IC50,[5],< 31.6 nM
same,IC50,[6],< 31.6 nM
same,"viability, T/C",[7],12.3%
same,"viability, T/C",[8],12.4%
same,"viability, T/C",[9],14.2%
same,"viability, T/C",[10],13.5%
same,"viability, T/C","second compound 0.000949 µM, first compound 3.16 µM",17.1%
same,"viability, T/C","second compound 0.000949 µM, first compound 10 µM",19.4%
same,"viability, T/C",[11],14.3%
same,"viability, T/C",[12],11.3%
same,"viability, T/C",[13],13.8%
same,"viability, T/C",[14],13.4%
same,"viability, T/C","second compound 0.003 µM, first compound 3.16 µM",15.2%
same,"viability, T/C","second compound 0.003 µM, first compound 10 µM",22.9%
same,"viability, T/C",[15],14.9%
same,"viability, T/C",[16],16.2%
same,"viability, T/C",[17],13.8%
same,"viability, T/C",[18],16%
same,"viability, T/C","second compound 0.00949 µM, first compound 3.16 µM",18.8%
same,"viability, T/C","second compound 0.00949 µM, first compound 10 µM",17.1%
same,"viability, T/C",[19],14.4%
same,"viability, T/C",[20],12.8%
same,"viability, T/C",[21],15.9%
same,"viability, T/C",[22],18%
same,"viability, T/C","second compound 0.03 µM, first compound 3.16 µM",18%
same,"viability, T/C","second compound 0.03 µM, first compound 10 µM",19.1%
same,"viability, T/C",[23],11.5%
same,"viability, T/C",[24],14.2%
same,"viability, T/C",[25],14.5%
same,"viability, T/C",[26],14.3%
same,"viability, T/C","second compound 0.0949 µM, first compound 3.16 µM",17.3%
same,"viability, T/C","second compound 0.0949 µM, first compound 10 µM",18%
same,"viability, T/C",[27],15.2%
same,"viability, T/C",[28],12.8%
same,"viability, T/C",[29],17.8%
same,"viability, T/C",[30],16.8%
same,"viability, T/C","second compound 0.3 µM, first compound 3.16 µM",21.4%
same,"viability, T/C","second compound 0.3 µM, first compound 10 µM",18.4%
Nc1ccn(C2OC(CO)C(O)C2(F)F)c(=O)n1 (stereo not drawn),"viability, T/C",compound 0.00316 µM,25.7% [middle of 4 runs]
same,"viability, T/C",compound 0.01 µM,6.96% [middle of 4 runs]
same,"viability, T/C",compound 0.0316 µM,5.62% [middle of 4 runs]
same,"viability, T/C",compound 0.1 µM,5.46% [middle of 4 runs]
same,"viability, T/C",compound 0.316 µM,5.2% [middle of 4 runs]
same,"viability, T/C",compound 1 µM,5.11% [middle of 4 runs]
same,IC50,curve of compound,< 3.16 nM
